Converted amounts (≈) assume the structure as drawn.
Legend:
[1] = system: mucosal wounds in the distal colon of mice; test: colonic biopsy injury model, mucosal wound repair in VNAM-treated mice; format: in vivo; conditions: day 12 post-injury
Source text: To test the role of microbes in mucosal wound repair, a biopsy injury model was used where the timing and site of injuries are known in each experiment. Wound repair in this model occurs in distinct phases. Barrier re-establishment begins immediately upon injury and lasts for 4 days, and is characterized by the formation of wound associated epithelial (WAE) cells that cover the denuded mucosa. Wound channel formation phase (day 4-day 8), involves extensive proliferation of epithelial cells in crypts adjacent to the wound, forming channels that emanate towards the center of the wound. These two phases culminate in the formation of new crypts that is complete within 12 days post-injury.
C57BL6 WT were purchased from Jackson Laboratories (Bar Harbor, ME) or Taconic Biosciences and acclimatized in a specific pathogen-free facility for 1 week before conducting any experiment. […]
(§1) For hematoxylin and eosin (H&E) staining, wounds were collected and embedded in optimum cutting temperature (OCT) formulation (Thermo Fisher Scientific), and 5 μm frozen sections were obtained using a cryostat. […] Images were analyzed using Olympus CellSens Standard imaging software to measure the wound bed length defined as the distance between the two farthest crypts in the center of the wound bed. 2-3 wounds per mouse were analyzed and wound bed lengths were averaged to obtain one value per mouse. […]

[2] = system: PGE2; test: wound PGE2 levels in VNAM administered, biopsy injured mice; format: in vivo; conditions: day 6 post-injury, NS-398 vs vehicle, p<0.01
Protocol: Antibiotic-treated (VNAM) mice received the following cocktail for 4 weeks prior to biopsy injury until the day of sacrifice in drinking water: 0.5 g/L Vancomycin, 1 g/L Neomycin, 1 g/L Ampicillin, 1 g/L Metronidazole, and 1 g/L Kool-aid. Control mice received Kool-aid alone. Mice were treated with VNAM in the following figures: FIG. 8A-F, FIG. 9A-E, FIG. 12A-D, FIG. 13, FIG. 14, and FIG. 19A. […]

[3] = system: mucosal wounds in the distal colon of mice; test: biopsy injury model in WT mice without VNAM or D. hansenii gavage; format: in vivo; conditions: amphotericin B in the absence of D. hansenii gavage and VNAM; day 12 post-injury
Source text: C57BL6 WT were purchased from Jackson Laboratories (Bar Harbor, ME) or Taconic Biosciences and acclimatized in a specific pathogen-free facility for 1 week before conducting any experiment. Biopsy forceps and a miniaturized colonoscope system (Karl Storz) were used to create mucosal wounds in the distal colon of mice as described previously. Briefly, mice were anesthetized using ketamine/xylazine and stool pellets were removed from the colon by flushing with PBS. Next, 3 French biopsy forceps were inserted into the colon and 3-5 thickness areas of mucosa and submucosa were removed under the guidance of an endoscopy camera. Biopsy injured mice were euthanized, and wounds were collected on days 4, 6, 8, and 12 to evaluate healing. Biopsy injury was performed by investigators blinded to the treatments.
as §1

[4] = system: fungi; test: fungi in colonic wounds of biopsy-injured mice (ITS qPCR, anti-fungal antibody staining, ITS sequencing, SDA culture); format: in vivo; conditions: VNAM-treated mice; amphotericin B orally once daily from 3 days before injury to day 6 post-injury
Protocol: Quantitative PCR was performed on the mice of Ex. 4 to identify fungal microbiota within the intestinal wounds. About three fecal pellets or 10-50 mg samples of intestinal tissue were resuspended in Tris buffer supplemented with 1000 U/ml of lyticase (Sigma), 1 mM EDTA, and 0.2% β-mercaptoethanol (Sigma). DNA was extracted using either the DNeasy PowerLyzer PowerSoil kit (Qiagen) or DNA mini stool extraction kit (Qiagen) according to manufacturer's instructions.
Quantitative PCR was performed using SYBR Green (Roche) or SYBR Green Jumpstart Taq Ready mix (Sigma) on an Eppendorf Mastercycler (Eppendorf) using the following primers as described previously (23, 42, 52)—Saccharomyces cerevisiae: forward (5′-[…]-3′, SEQ ID NO:3), reverse (5′-[…]-3′, SEQ ID NO:4), Candida tropicalis: forward (5′-[…]-3′, SEQ ID NO:5), reverse (5′-[…]-3′, SEQ ID NO:6), Debaryomyces hansenii: forward (5′-[…]—3′, SEQ ID NO:7), reverse (5′-[…]-3′, SEQ ID NO:8) and ITS1-2: forward (5′-[…]-3′, SEQ ID NO:9), reverse (5′-[…]-3′, SEQ ID NO:10). The following conditions were used: 94° C. for 10 minutes, followed by 40 cycles of 94° C. for 30 seconds, 55° C. for 30 seconds, and 72° C. for 2 minutes, ending with 72° C. for 30 minutes. […]

[5] = system: D. hansenii; test: biopsy injury model in WT mice gavaged with D. hansenii CDA1 (human clinical isolate); format: in vivo; conditions: WT mice gavaged with D. hansenii CDA1 with or without amphotericin B; day 12 post-injury
Protocol: For inoculation experiments, yeasts were expanded in Sabouraud dextrose agar (SDA) for 2-4 days at 30° C. prior to gavage. Mice were gavaged with pure culture of D. hansenii (obtained from the wounds of antibiotic-treated mice or inflamed tissues of Crohn's disease) or Saccharomyces cerevisiae (ATCC) at ˜10^6 CFU/mouse, unless otherwise stated, in 150 μl of PBS. Controls received PBS only. For all inoculation experiments, gavage occurred 2 days before injury, on the day of injury, and 2, 4, and 6 days post-injury unless otherwise stated.
To ascertain whether human clinical isolates of D. hansenii were capable of inducing repair defects, the following experiments were conducted. WT mice were gavaged with D. hansenii CDA1 (Table 3) using methods similar to those described above. The CDA isolate was associated with impaired crypt regeneration in the biopsy injury model, and this effect was reversed by amphotericin B treatment (FIG. 11G, I).

[6] = system: Debaryomyces sp.; test: mini screen with known water-soluble antifungals (MIC, dose-response); format: cell-based

## CS(=O)(=O)Nc1ccc([N+](=O)[O-])cc1OC1CCCCC1 [NS-398]
[1]; VNAM pre-treated mice, NS-398 2.5 mg/kg i.p. twice daily days 4-10
  wound bed length, NS-398 vs vehicle: not significant
[2]
  wound PGE2 levels: ablation of PGE2

## C[C@@H]1[C@H](O)[C@@H](C)/C=C/C=C/C=C/C=C/C=C/C=C/C=C/[C@H](O[C@@H]2O[C@H](C)[C@@H](O)[C@H](N)[C@@H]2O)C[C@@H]2O[C@](O)(C[C@@H](O)C[C@@H](O)[C@H](O)CC[C@@H](O)C[C@@H](O)CC(=O)O[C@H]1C)C[C@H](O)[C@H]2C(=O)O [amphotericin B]
[1]; VNAM-treated mice, amphotericin B orally
  crypt regeneration (wound bed length): reversed the crypt regeneration defects
[3]
  repair of WT mice (wound bed length): did not demonstrate any obvious defects in repair
[4]
  fungal antigen detection in the wounds: reduced fungal antigen detection
[5]
  impaired crypt regeneration caused by D. hansenii CDA1 (wound bed length): reversed

## CC[C@H](C)C[C@H](C)CCCCCCCCC(=O)N[C@H]1C[C@@H](O)[C@@H](NCCN)NC(=O)[C@@H]2[C@@H](O)CCN2C(=O)[C@H]([C@H](O)CCN)NC(=O)[C@H]([C@H](O)[C@@H](O)c2ccc(O)cc2)NC(=O)[C@@H]2C[C@@H](O)CN2C(=O)[C@H]([C@@H](C)O)NC1=O [caspofungin]
[6]; Debaryomyces
  MIC: 0.62 µg/mL (≈ 0.567 µM)
[6]; against Debaryomyces sp., water-soluble antifungals
  effectiveness compared to azoles in the antifungal screen: most effective at lowest concentrations

Reference: US12582696B2, “Debaryomyces species as an indicator of non-healing ulcers in Crohn's disease” (Washington University, priority 2019, dated 2026)
